Laboratory results from ChEMBL document CHEMBL1909046, “DrugMatrix in vitro pharmacology data”.

Columns and labels:
[1] = target: T1, Alpha-1D adrenergic receptor (Homo sapiens, UniProt P25100); format: cell membranes, HEK293, Membrane; settings: hek293; also: in other assays of this panel Not Active means under 50% inhibition at 10 µM
T1 sequence (P25100 whole entry): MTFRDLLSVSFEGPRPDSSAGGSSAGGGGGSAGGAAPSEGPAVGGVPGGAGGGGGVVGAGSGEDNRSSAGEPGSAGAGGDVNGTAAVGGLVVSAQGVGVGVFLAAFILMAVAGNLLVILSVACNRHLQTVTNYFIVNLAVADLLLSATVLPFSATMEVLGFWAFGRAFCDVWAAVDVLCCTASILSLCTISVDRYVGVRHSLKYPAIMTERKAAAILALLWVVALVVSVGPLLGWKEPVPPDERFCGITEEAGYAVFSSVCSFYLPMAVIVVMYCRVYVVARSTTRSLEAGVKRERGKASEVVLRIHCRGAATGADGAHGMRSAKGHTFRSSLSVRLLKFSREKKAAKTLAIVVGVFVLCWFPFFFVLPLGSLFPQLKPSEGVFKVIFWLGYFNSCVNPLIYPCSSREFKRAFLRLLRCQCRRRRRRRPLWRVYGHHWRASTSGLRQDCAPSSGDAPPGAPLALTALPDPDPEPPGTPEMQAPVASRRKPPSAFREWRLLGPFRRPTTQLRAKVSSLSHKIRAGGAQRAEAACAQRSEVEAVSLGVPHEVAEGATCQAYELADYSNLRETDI

[2] = target: T2, Alpha-2C adrenergic receptor (Homo sapiens, UniProt P18825); test: DRUGMATRIX: Adrenergic Alpha-2C radioligand binding (ligand: [3H] MK-912); format: cell membranes, Sf9, Membrane; settings: sf9
T2 sequence (P18825 whole entry): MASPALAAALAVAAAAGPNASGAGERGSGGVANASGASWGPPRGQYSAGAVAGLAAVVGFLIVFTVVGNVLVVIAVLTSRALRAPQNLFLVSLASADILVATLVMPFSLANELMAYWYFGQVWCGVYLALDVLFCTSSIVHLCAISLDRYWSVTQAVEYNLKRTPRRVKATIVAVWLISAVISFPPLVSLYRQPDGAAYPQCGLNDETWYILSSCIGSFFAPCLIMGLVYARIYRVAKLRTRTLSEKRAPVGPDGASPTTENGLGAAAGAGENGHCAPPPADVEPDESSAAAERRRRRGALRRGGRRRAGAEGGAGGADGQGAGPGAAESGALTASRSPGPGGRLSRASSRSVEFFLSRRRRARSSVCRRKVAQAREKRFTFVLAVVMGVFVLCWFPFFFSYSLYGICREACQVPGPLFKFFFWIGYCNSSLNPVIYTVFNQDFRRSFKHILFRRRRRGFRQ

[3] = target: T3, Substance-K receptor (Homo sapiens, UniProt P21452); format: cell membranes, CHO, Membrane; also: in other assays of this panel Not Active means under 50% inhibition at 10 µM
T3 sequence (P21452 whole entry): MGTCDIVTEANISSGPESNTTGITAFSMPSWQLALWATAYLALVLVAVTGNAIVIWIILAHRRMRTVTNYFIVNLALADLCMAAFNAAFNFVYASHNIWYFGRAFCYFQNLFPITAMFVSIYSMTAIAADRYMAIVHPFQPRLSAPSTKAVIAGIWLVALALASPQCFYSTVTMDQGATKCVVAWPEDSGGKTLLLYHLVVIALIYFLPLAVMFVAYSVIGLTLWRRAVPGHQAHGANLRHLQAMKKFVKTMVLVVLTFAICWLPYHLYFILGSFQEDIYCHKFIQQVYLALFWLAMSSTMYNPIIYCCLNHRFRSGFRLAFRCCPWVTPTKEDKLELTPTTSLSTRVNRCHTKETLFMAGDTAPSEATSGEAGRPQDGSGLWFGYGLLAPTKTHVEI

[4] = target: Sodium-dependent dopamine transporter (Homo sapiens, UniProt Q01959); test: DRUGMATRIX: Dopamine Transporter radioligand binding (ligand: [125I] RTI-55); format: cell membranes, CHO-K1, Membrane; settings: Not Active = under 50% inhibition at 10 µM
Sequence of Sodium-dependent dopamine transporter (Q01959 whole entry): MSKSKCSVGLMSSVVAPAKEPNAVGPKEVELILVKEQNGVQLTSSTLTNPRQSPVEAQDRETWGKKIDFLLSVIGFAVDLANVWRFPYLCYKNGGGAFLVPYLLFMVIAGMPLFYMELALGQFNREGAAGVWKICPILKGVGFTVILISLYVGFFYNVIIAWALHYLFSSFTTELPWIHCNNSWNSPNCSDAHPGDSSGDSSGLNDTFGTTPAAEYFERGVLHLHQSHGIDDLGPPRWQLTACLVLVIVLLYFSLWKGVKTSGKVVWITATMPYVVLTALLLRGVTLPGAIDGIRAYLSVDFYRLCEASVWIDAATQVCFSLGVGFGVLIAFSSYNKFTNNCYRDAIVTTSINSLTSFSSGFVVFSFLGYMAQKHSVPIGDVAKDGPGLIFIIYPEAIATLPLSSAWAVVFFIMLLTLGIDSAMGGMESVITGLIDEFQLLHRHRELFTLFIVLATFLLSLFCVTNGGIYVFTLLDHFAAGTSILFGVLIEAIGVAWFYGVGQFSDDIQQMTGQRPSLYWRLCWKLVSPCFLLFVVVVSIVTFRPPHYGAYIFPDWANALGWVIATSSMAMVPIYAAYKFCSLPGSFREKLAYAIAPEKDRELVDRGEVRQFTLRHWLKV

| Molecule | IC50 [1] | IC50 [2] | IC50 ([3]; cho) | IC50 ([4]; cho-k1) | IC50 ([4]; read-out: IC50) [µM] | Ki ([4]; read-out: Ki) [µM] | IC50 ([3]; read-out: IC50) [µM] | Ki ([3]; read-out: Ki) [µM] | Ki [1] | Ki [2] | Ki ([3]; cho) | Ki ([4]; cho-k1) |
| --- | --- | --- | --- | --- | --- | --- | --- | --- | --- | --- | --- | --- |
| Cn1c(=O)c2c(ncn2CC(O)CO)n(C)c1=O (stereo not given) [DYPHYLLINE] | Not Active | Not Active | Not Active | Not Active |  |  |  |  |  |  |  |  |
| O=C(O)c1cccnc1Nc1cccc(C(F)(F)F)c1 [NIFLUMIC ACID] | Not Active | Not Active | Not Active | Not Active |  |  |  |  |  |  |  |  |
| CC(C)c1cccc(C(C)C)c1O [PROPOFOL] | Not Active | Not Active | Not Active | Not Active |  |  |  |  |  |  |  |  |
| COC(=O)Nc1nc2ccc(C(=O)c3cccs3)cc2[nH]1 [NOCODAZOLE] | Not Active | Not Active | Not Active |  | 6.23 | 4.95 |  |  |  |  |  |  |
| N=C(N)NC(=O)Cc1c(Cl)cccc1Cl [GUANFACINE] | Not Active |  | Not Active | Not Active |  |  |  |  |  |  |  |  |
| CC(C)NCC(O)COc1cccc2[nH]ccc12 (stereo not given) [PINDOLOL] | Not Active | Not Active | Not Active | Not Active |  |  |  |  |  |  |  |  |
| CC(=O)[C@@]1(O)CC[C@H]2[C@@H]3CCC4=CC(=O)CC[C@]4(C)[C@H]3CC[C@@]21C [HYDROXYPROGESTERONE] | Not Active | Not Active | Not Active |  | 6.91 | 5.49 |  |  |  |  |  |  |
| CC(=O)O[C@H]1C(=O)[C@@]2(C)[C@H]([C@H](OC(=O)c3ccccc3)[C@]3(O)C[C@H](OC(=O)[C@H](O)[C@@H](NC(=O)c4ccccc4)c4ccccc4)C(C)=C1C3(C)C)[C@]1(OC(C)=O)CO[C@@H]1C[C@@H]2O [PACLITAXEL] | Not Active | Not Active |  | Not Active |  |  | 6.12 | 2.04 |  |  |  |  |
| CCCOc1ccc(C(=O)OCCN(CC)CC)cc1N [PROPARACAINE] | Not Active | Not Active | Not Active | Not Active |  |  |  |  |  |  |  |  |
| O=C(N/N=C/c1ccc([N+](=O)[O-])o1)c1cc([N+](=O)[O-])cc([N+](=O)[O-])c1O [NIFURSOL] | Not Active | Not Active | Not Active | Not Active |  |  |  |  |  |  |  |  |
| CC(=O)Oc1ccc(C(c2ccc(OC(C)=O)cc2)c2ccccn2)cc1 [BISACODYL] | Not Active | Not Active | Not Active |  |  |  |  |  |  |  |  |  |
| CN(C)[C@@H]1C(O)=C(C(N)=O)C(=O)[C@@]2(O)C(O)=C3C(=O)c4c(O)ccc(Cl)c4[C@@](C)(O)[C@H]3C[C@@H]12 [CHLORTETRACYCLINE] | Not Active | Not Active | Not Active | Not Active |  |  |  |  |  |  |  |  |
| Nc1ccn([C@@H]2O[C@H](CO)[C@@H](O)[C@@H]2O)c(=O)n1 [CYTARABINE] | Not Active | Not Active | Not Active | Not Active |  |  |  |  |  |  |  |  |
| CCC1(CCC(C)C)C(=O)NC(=O)NC1=O [AMOBARBITAL] | Not Active | Not Active | Not Active | Not Active |  |  |  |  |  |  |  |  |
| AURANOFIN | Not Active | Not Active | Not Active | Not Active |  |  |  |  | Not Active | Not Active | Not Active | Not Active |
| O=C/C=C/c1ccccc1 | Not Active | Not Active | Not Active | Not Active |  |  |  |  |  |  |  |  |
| C=CCc1ccc(O)c(OC)c1 [EUGENOL] | Not Active | Not Active | Not Active | Not Active |  |  |  |  |  |  |  |  |
| COC1=C(OC)C(=O)C(CCCCCCCCCCO)=C(C)C1=O [IDEBENONE] | Not Active | Not Active | Not Active | Not Active |  |  |  |  |  |  |  |  |
| Oc1cccc(O)c1O [PYROGALLOL] | Not Active | Not Active | Not Active | Not Active |  |  |  |  |  |  |  |  |
| C[C@]12C=CC(=O)C=C1CC[C@@H]1[C@@H]2[C@@H](O)C[C@@]2(C)[C@H]1CC[C@]2(O)C(=O)CO [PREDNISOLONE] | Not Active | Not Active | Not Active | Not Active |  |  |  |  |  |  |  |  |
